Row | Compound | melting point
1 | O=C(CC1(O)CCC1)N[C@H]1CC[C@H](CCN2CCN(c3nccc4c3CCO4)CC2)CC1 | 155 °C
2 | CCN(CC)CCNC(=O)c1cnc(-c2ccccc2)nc1S | 178 to 180 °C
3 | CC(C)(N)[C@@H]1CCN(c2cc3c(c(N)c2F)c(=O)c(C(=O)O)cn3C2CC2)C1 | > 300 °C
4 | CS(=O)(=O)c1c(Sc2ccccc2)cccc1C(=O)O | 185 to 186 °C
5 | COc1ccc2nc(C(F)(F)F)c(C(=O)Nc3nccs3)c(O)c2c1 | > 270 °C
6 | CCCCCCCCCCCCCCCCCCOc1ccc2c(c1)C(=O)c1ccc(OCCCCCCCCCCCCCCCCCC)cc1C2=O | 112 to 122 °C
7 | N#Cc1ccc(NC(=O)c2cccc(S(=O)(=O)N3CCOCC3)c2)c(-c2nnn[nH]2)c1 | 230 to 232 °C
8 | CC(=O)Nc1ccn([C@@H]2C[C@H](OC(C)=O)[C@@H](O)[C@H]2O)c(=O)n1 (racemic) | 98 to 100 °C
9 | C#CCOc1cc(-n2nnn(CC)c2=O)c(Cl)cc1F | 88 to 89 °C
10 | COc1ccc(C=C(Br)Br)c(OC)c1 | 147 to 148 °C
11 | O=C(Nc1nnco1)C(c1ccccc1)c1ccccc1 | 131 to 132 °C
12 | C=CCN(C)C/C=C/COc1cc2c(cc1F)c(-c1ccc(Br)cc1)nn2C | 135 to 137 °C
13 | CN1C(=O)CN(C(=O)c2ccccc2)N(c2cc(Cl)c(C(C#N)c3ccc(Cl)cc3)c(Cl)c2)C1=O (centres undefined) | 148 °C
14 | CCOCc1nc2c(N)nc3cc(-c4cccnc4)ccc3c2n1Cc1ccc(CN)cc1 | 211 to 214 °C
15 | COc1ccc(CNc2nc(Cl)c3ncn(Cc4ccc(OC)cc4)c3n2)cc1 | 161 to 164 °C
16 | CCc1nc2c(N)nc3cc(OCc4ccc(C(F)(F)F)o4)ccc3c2s1 | 152 to 154 °C
17 | CSC(=C[N+](=O)[O-])NCCCCc1ccccn1 | 78 °C
18 | CS(=O)(=O)NC(CCC(O)(Cn1cncn1)c1ccc(F)cc1F)C(=O)O (centres undefined) | 165 to 173 °C
19 | COC(=O)c1cc(C(=O)OC)c2c(Cl)cc(Cl)cc2n1 | 116 to 118 °C
20 | CCc1ccc2cc(C)c(-n3cncn3)nc2c1 | 72 to 73 °C

Row | Compound | melting point
21 | CCC(O)c1ccccc1CS(=O)(=O)NC(=O)Nc1nc(OC)cc(OC)n1 (centres undefined) | 95 to 98 °C
22 | Cc1ccccc1-c1cc(=O)c2cc(O)ccc2o1 | 180 °C
23 | Cc1cc(O)n2nc(CN=[N+]=[N-])nc2n1 | 193 to 194 °C
24 | CCCC=CCOc1ccc(C(C)(C)CC(C)(C)C)cc1-n1nc2ccccc2n1 | 80 to 81 °C
25 | Cc1nc(-c2ccc(-c3cnc4[nH]c(=O)n(CCN5CCCC5=O)c4n3)cc2)n[nH]1 | 315 to 316 °C
26 | COc1ccc(S(=O)(=O)N(CCC(F)=C(F)F)c2ccccc2/C=C/c2ccncc2)cc1 | 148 to 149 °C
27 | O=c1[nH]nnn1-c1cc(C(F)(F)F)cc(C(F)(F)F)c1 | 145 to 147 °C
28 | Cc1ccsc1C(Cc1ccccc1O)N(C)C=O (centres undefined) | 142 to 144 °C
29 | COc1ccc(C(=O)NNC(C)=N)cc1 | 179 to 181 °C
30 | Cc1nn(C)c(Cl)c1C(=O)Nc1cccc2c1CCC2(C)C | 175 °C
31 | CC1(C)C=C(C#N)c2cc3nonc3cc2O1 | 136 to 138 °C
32 | COC(=O)COc1ccc2cc(-c3ccc(-c4ccccc4)n3Cc3ccccc3)ccc2c1 | 101 to 102 °C
33 | COC(=O)c1cc2nc(C)[nH]c2cc1C(=O)OC | 151 to 152 °C
34 | CSc1cc(CO)cc(S(N)(=O)=O)c1Cc1ccccc1 | 190 to 192 °C
35 | Cc1cccc2c1S(=O)(=O)NC(C1CCCCC1)N2 (centres undefined) | 228 to 230 °C
36 | COc1ccc(N(CCCCCO)S(=O)(=O)c2c(F)c(F)c(F)c(F)c2F)cc1 | 96 to 97 °C
37 | CCCC1(C)CC(=O)c2ccc(OCc3ccccc3)c(C)c2O1 (centres undefined) | 45 °C
38 | COc1cc(C(=O)OCc2cc(COC(=O)c3ccc(O)c(OC)c3)cc(COC(=O)c3ccc(O)c(OC)c3)c2)ccc1O | 161 °C
39 | COc1cc(OC)c(-c2cccn2C)cc1C=CC(=O)c1ccc(S(=O)(=O)Nc2cc(C)on2)cc1 | 113 to 115 °C

Reference: a melting point compilation (Tetko et al.; mined from patent text by program, amines drawn as free bases though some values may be those of a salt)
